From patent US4668627A, “Novel antibiotic compound” (Kureha Kagaku Kogyo Kabushiki Kaisha, priority 1982, dated 1987)
≈ marks a conversion by molar mass, not a printed value.

Assays:
[1] = test system: Micrococcus lysodeikticus; experiment: MIC, agar dilution, nutrient agar medium; type: cell-based; details: Micrococcus luteus
Saccharomyces cerevisiae = experiment: MIC, agar dilution, nutrient agar medium; type: cell-based
[2] = test system: Staphylococcus aureus 209 p; experiment: MIC, agar dilution, nutrient agar medium; type: cell-based
[3] = test system: Proteus mirabilis IFO 3849; experiment: MIC, agar dilution, nutrient agar medium; type: cell-based; details: IFO3849
[4] = solubility in organic solvents; type: physicochemical
[5] = test system: Serratia marcescens IAM 1065; experiment: MIC, agar dilution, nutrient agar medium; type: cell-based; details: IAM1065
[6] = test system: Citrobacter freundii IFO 12681; experiment: MIC, agar dilution, nutrient agar medium; type: cell-based; details: IFO12681
[7] = test system: Micrococcus luteus PCI 1001; experiment: MIC, agar dilution, nutrient agar medium; type: cell-based; details: PCI1001
[8] = test system: Peptostreptococcus parvulus; experiment: MIC, agar dilution, nutrient agar medium; type: cell-based; details: Lancefieldella parvula
[9] = test system: Lactobacillus acidophilus; experiment: MIC, agar dilution, nutrient agar medium; type: cell-based
[10] = test system: Salmonella abortusequi ATCC 9842; experiment: MIC, agar dilution, nutrient agar medium; type: cell-based; details: Salmonella enterica, ATCC9842
[11] = test system: Proteus vulgaris IFO 3167; experiment: MIC, agar dilution, nutrient agar medium; type: cell-based; details: IFO3167
[12] = test system: Candida albicans IAM 4905; experiment: MIC, agar dilution, nutrient agar medium; type: cell-based; details: IAM4905
Erwinia aroidae IAM 1068 = experiment: MIC, agar dilution, nutrient agar medium; type: cell-based; details: IAM1068
[13] = test system: various gram-positive and gram-negative bacteria; experiment: antibacterial activity (general statement); type: cell-based
[14] = test system: Vibrio-metshnikov IAM 1039; experiment: MIC, agar dilution, nutrient agar medium; type: cell-based
[15] = test system: Trichophyton interdigitale; experiment: MIC, agar dilution, nutrient agar medium; type: cell-based
[16] = test system: Mycobacterium avium IFO 3082; experiment: MIC, agar dilution, nutrient agar medium; type: cell-based; details: IFO3082
[17] = test system: Klebsiella pneumoniae IFO 12015; experiment: MIC, agar dilution, nutrient agar medium; type: cell-based; details: IFO12015
Pseudomonas putida T-2 = experiment: MIC, agar dilution, nutrient agar medium; type: cell-based; details: T2
[18] = test system: Trichophyton rubrum IFO 5467; experiment: MIC, agar dilution, nutrient agar medium; type: cell-based; details: IFO5467
Peptococcus aerogenes = experiment: MIC, agar dilution, nutrient agar medium; type: cell-based; details: Peptoniphilus asaccharolyticus
Salmonella anatum 1 = experiment: MIC, agar dilution, nutrient agar medium; type: cell-based; details: Salmonella enterica
[19] = test system: Xanthomonas oryzae IAM 1657; experiment: microbe, parasite or virus in culture; type: cell-based; details: IAM1657
Bacteroides fragilis = experiment: MIC, agar dilution, nutrient agar medium; type: cell-based
[20] = test system: Aspergillus oryzae IAM 2732; experiment: MIC, agar dilution, nutrient agar medium; type: cell-based; details: IAM2732
[21] = test system: Aspergillus niger IFO 6342; experiment: MIC, agar dilution, nutrient agar medium; type: cell-based; details: IFO6342
[22] = test system: Bifidobacterium adolescentis; experiment: MIC, agar dilution, nutrient agar medium; type: cell-based
[23] = test system: Escherichia coli K-12 IAM 1264; experiment: MIC, agar dilution, nutrient agar medium; type: cell-based; details: IAM1264
[24] = test system: Pseudomonas aeruginosa IFO 3080; experiment: MIC, agar dilution, nutrient agar medium; type: cell-based; details: IFO3080
Eubacterium aerofaciens = experiment: MIC, agar dilution, nutrient agar medium; type: cell-based; details: Collinsella aerofaciens
[25] = test system: Vibrio tyrogenes IAM 1080; experiment: MIC, agar dilution, nutrient agar medium; type: cell-based; details: IAM1080
[26] = test system: Aspergillus fumigatus IAM 2155; experiment: MIC, agar dilution, nutrient agar medium; type: cell-based; details: IAM2155
[27] = test system: Epidermophyton floccosum IFO 9045; experiment: MIC, agar dilution, nutrient agar medium; type: cell-based; details: IFO9045
[28] = test system: Microsporum gypseum IFO 5948; experiment: MIC, agar dilution, nutrient agar medium; type: cell-based; details: Nannizzia gypsea, IFO5948
[29] = test system: Proteus inconstans IFO 12930; experiment: MIC, agar dilution, nutrient agar medium; type: cell-based; details: Providencia alcalifaciens, IFO12930
[30] = test system: Proteus morganii IFO 3168; experiment: MIC, agar dilution, nutrient agar medium; type: cell-based; details: Morganella morganii, IFO3168
[31] = test system: Pseudomonas fluorescens IFO 3903; experiment: MIC, agar dilution, nutrient agar medium; type: cell-based; details: IFO3903
[32] = test system: Fusobacterium necrophorum; experiment: MIC, agar dilution, nutrient agar medium; type: cell-based
[33] = test system: Peptostreptococcus micros; experiment: MIC, agar dilution, nutrient agar medium; type: cell-based; details: Parvimonas micra
[34] = test system: Streptococcus pyogenes IFO 3340; experiment: MIC, agar dilution, nutrient agar medium; type: cell-based; details: IFO3340
[35] = test system: Corynebacterium equi IFO 3730; experiment: MIC, agar dilution, nutrient agar medium; type: cell-based; details: Rhodococcus (subgen. Prescottella) equi, IFO3730
mouse = experiment: acute toxicity to mouse, intraperitoneal; type: in vivo; details: intraperitoneally, 100 mg/kg
[36] = test system: Corynebacterium faciens IAM 1079; experiment: MIC, agar dilution, nutrient agar medium; type: cell-based; details: IAM1079
[37] = test system: Penicillium funiculosum IFO 6345; experiment: MIC, agar dilution, nutrient agar medium; type: cell-based; details: Talaromyces funiculosus, IFO6345
Pseudomonas ovalis = experiment: MIC, agar dilution, nutrient agar medium; type: cell-based; details: Pseudomonas putida
[38] = test system: Bacillus subtilis PCI 219; experiment: MIC, agar dilution, nutrient agar medium; type: cell-based; details: PCI219
[39] = test system: Aerobacter aerogenes ATCC 8724; experiment: MIC, agar dilution, nutrient agar medium; type: cell-based; details: Klebsiella aerogenes, ATCC8724

Compound `[C-]#[N+]C12CC3(/C=C/C(=O)O)OC3C1O2` (stereo not shown) [Antibiotic No. 2188, 3-(6-isocyano-3,7-dioxatricyclo[4.1.0.0^2,4]hept-4-yl)propenoic acid] has an MIC [1] of 6.25 µg/mL (≈ 32.4 µM), an MIC (Saccharomyces cerevisiae) greater than 200 µg/mL and an MIC [2] of 6.25 µg/mL (≈ 32.4 µM). The MIC [3] was 50 µg/mL (≈ 259 µM), the solubility ([4]; hexane and petroleum ether) was “insoluble” and the solubility ([4]; methanol, ethanol, acetone, ethyl acetate, chloroform and benzene) was “soluble”. The MIC [5] was greater than 100 µg/mL, the MIC [6] was 12.5 µg/mL (≈ 64.7 µM) and the MIC [7] was 6.25 µg/mL (≈ 32.4 µM). For the same compound, the MIC [8] was 50 µg/mL (≈ 259 µM), the MIC [9] was 200 µg/mL (≈ 1040 µM) and the MIC [10] was 12.5 µg/mL (≈ 64.7 µM). The MIC [11] was 12.5 µg/mL (≈ 64.7 µM), the MIC [12] was greater than 200 µg/mL and the MIC (Erwinia aroidae IAM 1068) was 25 µg/mL (≈ 129 µM). The antibacterial activity [13] was “shows an antibacterial activity against various gram-positive and gram-negative bacteria”, the MIC [14] was 1.6 µg/mL (≈ 8.28 µM) and the MIC [15] was 100 µg/mL (≈ 518 µM). The MIC [16] was 12.5 µg/mL (≈ 64.7 µM), the MIC [17] was 50 µg/mL (≈ 259 µM) and the MIC (Pseudomonas putida T-2) was 6.25 µg/mL (≈ 32.4 µM). For the same compound, the MIC [18] was 50 µg/mL (≈ 259 µM), the MIC (Peptococcus aerogenes) was 25 µg/mL (≈ 129 µM) and the MIC (Salmonella anatum 1) was 12.5 µg/mL (≈ 64.7 µM). For the same compound, the MIC [19] was 50 µg/mL (≈ 259 µM), the MIC (Bacteroides fragilis) was 50 µg/mL (≈ 259 µM) and the MIC [20] was greater than 200 µg/mL. It also gave an MIC [21] greater than 200 µg/mL, an MIC [22] of 200 µg/mL (≈ 1040 µM) and an MIC [23] of 12.5 µg/mL (≈ 64.7 µM). For the same compound, the MIC [24] was 100 µg/mL (≈ 518 µM), the MIC (Eubacterium aerofaciens) was greater than 200 µg/mL and the MIC [25] was 3.1 µg/mL (≈ 16 µM). It also gave an MIC [26] of 100 µg/mL (≈ 518 µM), an MIC [27] of 50 µg/mL (≈ 259 µM) and an MIC [28] of 100 µg/mL (≈ 518 µM). For the same compound, the MIC [29] was 50 µg/mL (≈ 259 µM), the MIC [30] was 12.5 µg/mL (≈ 64.7 µM) and the MIC [31] was 12.5 µg/mL (≈ 64.7 µM). It also gave an MIC [32] of 50 µg/mL (≈ 259 µM), an MIC [33] of 25 µg/mL (≈ 129 µM) and an MIC [34] of 6.25 µg/mL (≈ 32.4 µM). For the same compound, the MIC [35] was 6.25 µg/mL (≈ 32.4 µM), the acute toxicity (mouse) was “no acute toxicity” and the MIC [36] was 12.5 µg/mL (≈ 64.7 µM). For the same compound, the MIC [37] was 200 µg/mL (≈ 1040 µM), the MIC (Pseudomonas ovalis) was greater than 100 µg/mL and the MIC [38] was 12.5 µg/mL (≈ 64.7 µM). The MIC [39] was 50 µg/mL (≈ 259 µM).
